Assay results taken from patent EP0942911B1, “BENZOPYRANOPYRROLE AND BENZOPYRANOPYRIDINE ALPHA-1 ADRENERGIC COMPOUNDS” (Abbott Laboratories, priority 1996, dated 1998).
Structures can show the parent of a compound that is named as a salt.

Target: T1, α-1B adrenoreceptor (Rattus norvegicus, UniProt P15823)
T1 construct: from tissue; host or cells: rat spleen
T1 sequence (P15823 1-515): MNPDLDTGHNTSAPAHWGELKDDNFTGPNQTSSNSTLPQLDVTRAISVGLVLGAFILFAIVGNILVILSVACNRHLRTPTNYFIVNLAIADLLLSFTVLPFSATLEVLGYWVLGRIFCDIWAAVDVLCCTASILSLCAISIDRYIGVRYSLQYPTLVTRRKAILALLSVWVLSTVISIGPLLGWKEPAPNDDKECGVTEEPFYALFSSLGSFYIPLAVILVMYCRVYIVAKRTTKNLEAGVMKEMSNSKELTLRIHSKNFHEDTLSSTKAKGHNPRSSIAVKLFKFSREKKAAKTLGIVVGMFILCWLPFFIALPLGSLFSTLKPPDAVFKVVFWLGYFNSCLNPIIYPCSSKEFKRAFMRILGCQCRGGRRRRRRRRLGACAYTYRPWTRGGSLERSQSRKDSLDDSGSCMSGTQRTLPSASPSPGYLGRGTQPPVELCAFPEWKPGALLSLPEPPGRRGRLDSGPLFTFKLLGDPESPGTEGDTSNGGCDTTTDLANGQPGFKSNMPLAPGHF
Test: cell-based
Conditions: phenylephrine-induced contraction, Schild plot; for Kb: read-out: In Vitro Characterization (pA2) Rat Spleen (converted)
Method in brief: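 Phenylephrine dose-response curves for contraction were repeated against increasing test-agent concentrations. pA2 was derived by Schild plot [[…] vs log molarity of test agent].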

Row | Compound | Kb | In Vitro Characterization (pA2) Rat Spleen
1 | O=c1[nH]c2c(sc3cccnc32)c(=O)n1CCCCN1C[C@@H]2COc3ccccc3[C@@H]2C1 (racemic) [Example 70, 3-[4-((±)-cis-1,2,3,3a,4,9b-hexahydro-[1]-benzopyrano[3,4-c]pyrrol-2-yl)butyl]-pyrido[2',3':4,5]thieno[3,2-d]pyrimidine-2,4(1H,3H)-dione dihydrochloride] | 87.1 nM | 
2 | COc1cc2[nH]c(=O)n(CCCCN3C[C@@H]4COc5ccccc5[C@@H]4C3)c(=O)c2cc1OC (racemic) [Example 81, 3-[4-((±1-cis-1,2,3,3a,4,9b-hexahydro-[1]-benzopyrano[3,4-c]pyrrol-2-yl)butyl]-6,7-dimethoxy-quinazoline-2,4(1H,3H)-dione hydrochloride] | 38.9 nM | 
3 | COc1cnc2sc3c(=O)n(CCCCN4CC5COc6cccc(OC)c6[C@@H]5C4)c(=O)[nH]c3c2n1.Cl (stereo in doubt) [Example 43, 3-[4-((3aS,9bR)-trans-9-Methoxy-1,2,3,3a,4,9b-hexahydro-[1]-benzopyrano[3,4-c]pyrrol-2-yl)butyl]-8-methoxy-pyrazino[2',3':4,5]thieno[3,2-d]pyrimidine-2,4(1H,3H)-dione hydrochloride] |  | 7.66
4 | COc1cc2nc(N3CCN(C(=O)C4COc5ccccc5O4)CC3)nc(N)c2cc1OC (centres unmarked) [Doxazosin, doxazosin, reference compound] |  | 9.51
5 | COc1cccc2c1[C@@H]1CN(CCCCn3c(=O)[nH]c4c(sc5c(OC)ccnc54)c3=O)C[C@H]1CO2 [Example 17, 3-[4-((3aS,9bR)-trans-9-Methoxy-1,2,3,3a,4,9b-hexahydro-[1]-benzopyrano[3,4-c]pyrrol-2-yl)butyl]-6-methoxy-pyrido[2',3':4,5]thieno[3,2-d]pyrimidine-2,4(1H,3H)-dione dihydrochloride] | 11 nM | 
6 | COc1cccc2c1[C@@H]1CN(CCCCn3c(=O)[nH]c4c(sc5c(OC)ccnc54)c3=O)C[C@@H]1CO2 [Example 18, 3-[4-((3aR,9bR)-cis-9-Methoxy-1,2,3,3a,4,9b-hexahydro[1]-benzopyrano[3,4-c]pyrrol-2-yl)butyl]-6-methoxy-pyrido[2',3':4,5]thieno[3,2-d]pyrimidine-2,4(1H,3H)-dione dihydrochloride] | 19.5 nM | 
7 | COc1cccc2c1[C@@H]1CN(CCCCn3c(=O)[nH]c4c(sc5ccc(Cl)nc54)c3=O)C[C@H]1CO2 [Example 25, 3-[4-((3aS,9bR)-trans-9-Methoxy-1,2,3,3a,4,9b-hexahydro-[1]-benzopyrano[3,4-c]pyrrol-2-yl)butyl]-8-chloro-pyrido[2',3':4,5]thieno[3,2-d]pyrimidine-2,4(1H,3H)-dione dihydrochloride] | 2 nM | 
8 | COc1cccc2c1[C@@H]1CN(CCCCn3c(=O)[nH]c4c(sc5ccncc54)c3=O)C[C@@H]1CO2 [Example 28, 3-[4-((3aR,9bR)-cis-9-Methoxy-1,2,3,3a,4,9b-hexahydro-[1]-benzopyrano[3,4-c]pyrrol-2-yl)butyl]-pyrido[3',4':4,5]thieno[3,2-d]pyrimidine-2,4(1H,3H)-dione dihydrochloride] | 4.37 nM | 
9 | COc1cccc2c1[C@@H]1CN(CCCCn3c(=O)[nH]c4c(sc5cnccc54)c3=O)C[C@@H]1CO2 [Example 29, 3-[4-((3aR,9bR)-cis-9-Methoxy-1,2,3,3a,4,9b-hexahydro-[1]-benzopyrano[3,4-c]pyrrol-2-yl)butyl]-pyrido[4',3':4,5]thieno[3,2-d]pyrimidine-2,4(1H,3H)-dione dihydrochloride] | 12.3 nM | 
10 | COc1ccc2sc3c(=O)n(CCCCN4C[C@@H]5COc6cccc(OC)c6[C@@H]5C4)c(=O)[nH]c3c2n1 [Example 30, 3-[4-((3aR,9bR)-cis-9-Methoxy-1,2,3,3a,4,9b-hexahydro-[1]-benzopyrano[3,4-c]pyrrol-2-yl)butyl]-8-methoxy-pyrido[2',3':4,5]thieno[3,2-d]pyrimidine-2,4(1H,3H)-dione hydrochloride] | 21.4 nM | 
11 | COc1cnc2sc3c(=O)n(CCCCN4C[C@@H]5COc6cccc(OC)c6[C@@H]5C4)c(=O)[nH]c3c2n1 [Example 31, 3-[4-((3aR,9bR)-cis-9-Methoxy-1,2,3,3a,4,9b-hexahydro-[1]-benzopyrano[3,4-c]pyrrol-2-yl)butyl]-8-methoxy-pyrazino[2',3':4,5]thieno[3,2-d]pyrimidine-2,4(1H,3H)-dione hydrochloride] | 14.1 nM | 
12 | COc1cccc2c1[C@@H]1CN(CCCCn3c(=O)[nH]c4c(sc5ncccc54)c3=O)C[C@@H]1CO2 [Example 34, 3-[4-((3aR,9bR)-cis-9-Methoxy-1,2,3,3a,4,9b-hexahydro-[1]-benzopyrano[3,4-c]pyrrol-2-yl)butyl]-pyrido[3',2':4,5]thieno[3,2-d]pyrimidine-2,4(1H,3H)-dione hydrochloride] | 7.59 nM | 
13 | COc1cccc2c1[C@@H]1CN(CCCCn3c(=O)[nH]c4c(sc5nc(C)ccc54)c3=O)C[C@@H]1CO2 [Example 35, 3-[4-((3aR,9bR)-cis-9-Methoxy-1,2,3,3a,4,9b-hexahydro-[1]-benzopyrano[3,4-c]pyrrol-2-yl)butyl]-7-methyl-pyrido[3',2':4,5]thieno[3,2-d]pyrimidine-2,4(1H,3H)-dione hydrochloride] | 11 nM | 
14 | COc1cccc2c1[C@@H]1CN(CCCCn3c(=O)[nH]c4c(sc5nccc(OC)c54)c3=O)C[C@@H]1CO2 [Example 36, 3-[4-((3aR,9bR)-cis-9-Methoxy-1,2,3,3a,4,9b-hexahydro-[1]-benzopyrano[3,4-c]pyrrol-2-yl)butyl]-9-methoxy-pyrido[3',2':4,5]thieno[3,2-d]pyrimidine-2,4(1H,3H)-dione hydrochloride] | 8.13 nM | 
15 | COc1cccc2c1[C@@H]1CN(CCCCn3c(=O)[nH]c4c(sc5ccc(Cl)nc54)c3=O)C[C@@H]1CO2 [Example 37, 3-[4-((3aR,9bR)-cis-9-Methoxy-1,2,3,3a,4,9b-hexahydro-[1]-benzopyrano[3,4-c]pyrrol-2-yl)butyl]-8-chloro-pyrido[2',3':4,5]thieno[3,2-d]pyrimidine-2,4(1H,3H)-dione hydrochloride] | 9.33 nM | 
16 | COc1cccc2c1[C@@H]1CN(CCCCn3c(=O)[nH]c4c(sc5cc(Cl)cnc54)c3=O)C[C@@H]1CO2 [Example 38, 3-[4-((3aR,9bR)-cis-9-Methoxy-1,2,3,3a,4,9b-hexahydro-[1]-benzopyrano[3,4-c]pyrrol-2-yl)butyl]-7-chloro-pyrido[2',3':4,5]thieno[3,2-d]pyrimidine-2,4(1H,3H)-dione hydrochloride] | 19.5 nM | 
17 | COc1cccc2c1[C@@H]1CN(CCCCn3c(=O)[nH]c4c(sc5nc(-c6ccccc6)cnc54)c3=O)C[C@@H]1CO2 [Example 40, 3-[4-((3aR,9bR)-cis-9-Methoxy-1,2,3,3a,4,9b-hexahydro-[1]-benzopyrano[3,4-c]pyrrol-2-yl)butyl]-7-phenyl-pyrazino[2',3':4,5]thieno[3,2-d]pyrimidine-2,4(1H,3H)-dione hydrochloride] | 759 nM | 
18 | COc1cccc2c1[C@@H]1CN(CCCCn3c(=O)[nH]c4c(sc5ccncc54)c3=O)C[C@H]1CO2 [Example 41, 3-[4-((3aS,9bR)-trans-9-Methoxy-1,2,3,3a,4,9b-hexahydro-[1]-benzopyrano[3,4-c]pyrrol-2-yl)butyl]-pyrido[3',4':4,5]thieno[3,2-d]pyrimidine-2,4(1H,3H)-dione dihydrochloride] | 3.98 nM | 
19 | COc1cccc2c1[C@@H]1CN(CCCCn3c(=O)[nH]c4c(sc5cnccc54)c3=O)C[C@H]1CO2 [Example 42, 3-[4-((3aS,9bR)-trans-9-Methoxy-1,2,3,3a,4,9b-hexahydro-[1]-benzopyrano[3,4-c]pyrrol-2-yl)butyl]-pyrido[4',3':4,5]thieno[3,2-d]pyrimidine-2,4(1H,3H)-dione dihydrochloride] | 2.75 nM | 
20 | COc1cccc2c1[C@@H]1CN(CCCCn3c(=O)[nH]c4c(sc5ncccc54)c3=O)C[C@H]1CO2 [Example 44, 3-[4-((3aS,9bR)-trans-9-Methoxy-1,2,3,3a,4,9b-hexahydro-[1]-benzopyrano[3,4-c]pyrrol-2-yl)butyl]-pyrido[3',2':4,5]thieno[3,2-d]pyrimidine-2,4(1H,3H)-dione hydrochloride] | 4.47 nM | 
21 | COc1cccc2c1[C@@H]1CN(CCCCn3c(=O)[nH]c4c(sc5nc(C)ccc54)c3=O)C[C@H]1CO2 [Example 45, 3-[4-((3aS,9bR)-trans-9-Methoxy-1,2,3,3a,4,9b-hexahydro-[1]-benzopyrano[3,4-c]pyrrol-2-yl)butyl]-7-methyl-pyrido[3',2':4,5]thieno[3,2-d]pyrimidine-2,4(1H,3H)-dione hydrochloride] | 1.29 nM | 
22 | COc1ccc2c(n1)sc1c(=O)n(CCCCN3C[C@H]4COc5cccc(OC)c5[C@@H]4C3)c(=O)[nH]c12 [Example 46, 3-[4-((3aS,9bR)-trans-9-Methoxy-1,2,3,3a,4,9b-hexahydro-[1]-benzopyrano[3,4-c]pyrrol-2-yl)butyl]-7-methoxy-pyrido[3',2':4,5]thieno[3,2-d]pyrimidine-2,4(1H,3H)-dione hydrochloride] | 7.59 nM | 
23 | COc1cccc2c1[C@@H]1CN(CCCCn3c(=O)[nH]c4c(sc5nc(Cl)ccc54)c3=O)C[C@H]1CO2 [Example 47, 3-[4-((3aS,9bR)-trans-9-Methoxy-1,2,3,3a,4,9b-hexahydro-[1]-benzopyrano[3,4-c]pyrrol-2-yl)butyl]-7-chloro-pyrido[3',2':4,5]thieno[3,2-d]pyrimidine-2,4(1H,3H)-dione hydrochloride] | 11.2 nM | 
